In patent US12351571B2, “Substituted quinoxaline compounds as inhibitors of FGFR tyrosine kinases” (ARRAY BIOPHARMA INC., priority 2018, dated 2025):

Experiments:
FGFR3 [1] = molecular target: T1, FGFR3 (Homo sapiens (Human), UniProt P22607); assay: FGFR Enzyme Activity Assay (LanthaScreen TR-FRET), FGFR3; format: biochemical; details: 25 μM ATP, 10 minute incubation; read-out: FGFR3 Enz FRET IC50
Procedure: FGFR3 kinase activity was measured by the Invitrogen LanthaScreen™ Assay technology which directly measures the amount of substrate phosphorylation by TR-FRET using a flourescently-labeled peptide and Europium-labeled antibody. Briefly, 750 pM N-terminal GST-HIS6 fusion protein with a 3C cleavage site recombinant human FGFR3 (amino acids R397-T806) (ProQinase Cat. No. 1068-0000-1) was incubated with 100 nM Alexa Fluor® 647-Poly-GT Peptide Substrate (Life Technologies Cat. No. PV5836) and 25 μM ATP along with test compound in a buffer consisting of 250 mM HEPES, 25 mM MgCl2, 0.05% TritonX-100, pH 7.5, and 2% DMSO. Compounds were typically prepared in a threefold serial dilution in DMSO and added to the assay to give the appropriate final concentration. After a 10 minute incubation at 22° C., an equal volume of 2 nM LanthaScreen® Eu-PY20 Antibody (Life Technologies Cat. No. PV5691) and 10 mM EDTA were added to quench the kinase reaction and start the detection reaction. After an additional 60 minute incubation at 22° C., the reaction was measured using a PerkinElmer EnVision multimode plate reader via TR-FRET dual wavelength detection, and the percent of control (POC) calculated using a ratiometric emission factor. 100 POC was determined using no test compounds and 0 POC was determined using no enzyme. The POC values were fit to a 4-parameter logistic curve as a function of the concentration of the compound, and the IC50 value is the point where the curve crosses 50 POC.
Target sequence in this assay (P22607 397-806): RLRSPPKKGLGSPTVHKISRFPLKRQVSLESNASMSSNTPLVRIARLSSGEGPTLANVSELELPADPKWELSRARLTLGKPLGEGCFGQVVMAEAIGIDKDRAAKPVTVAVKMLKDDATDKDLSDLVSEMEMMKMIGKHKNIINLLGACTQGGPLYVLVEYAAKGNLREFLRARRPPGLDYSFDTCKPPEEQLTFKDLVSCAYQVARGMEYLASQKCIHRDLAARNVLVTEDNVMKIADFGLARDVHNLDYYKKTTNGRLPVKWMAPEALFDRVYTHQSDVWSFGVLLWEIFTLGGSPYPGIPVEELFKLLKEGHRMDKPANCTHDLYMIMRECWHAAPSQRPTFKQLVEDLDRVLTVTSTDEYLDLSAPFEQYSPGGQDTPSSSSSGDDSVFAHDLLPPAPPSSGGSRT

FGFR3 [2] = molecular target: T1, FGFR3; assay: LC/MS FGFR3 kobs assay (covalent modification); format: biochemical; details: 500 nM FGFR3, 3 μM compound
Procedure: (§1) The LC/MS FGFR1 and FGFR3 kobs assays were conducted as follows. 500 nM FGFR1 (Array BioPharma construct p1702; SEQ ID NO: 1, amino acids 458-765) or FGFR3 (Array BioPharma construct p1700; SEQ ID NO: 5, amino acids 449-759) were incubated with 3 μM compound in 25 mM HEPES (4-(2-hydroxyethyl)-1-piperazineethanesulfonic acid), pH 7.4, 5 mM MgCl2, 150 mM NaCl, 0.5 mM TCEP (tris(2-carboxyethyl) phosphine), and 2% DMSO in a total volume of 20 μL. At each time point, the reaction was quenched with 20 μL of 0.4% formic acid. The extent of protein modification by each compound was determined by LC/MS on an Agilent Technologies 6520 Q-TOF LC/MS. Protein signals were then automatically deconvoluted using Agilent Masshunter software. Deconvoluted mass signals were exported to Tibco Spotfire data analysis program for further processing and normalization.
(§2) Data analysis included five steps. First, the signals for the “DMSO Controls” were analyzed to determine the percent of signal associated with unmodified FGFR1 or FGFR3 at each time point. Next, the percent of the signal associated with the covalent modification was determined. Third, the average nonmodified “DMSO Control” signal was used to normalize the modified protein signals at each time point. The percent of unmodified protein was fit to an exponential decay model where A0 is the Percent Unmodified at the start of the reaction, and kobs is the observed rate constant over the time period.
Target sequence in this assay (P22607 449-759): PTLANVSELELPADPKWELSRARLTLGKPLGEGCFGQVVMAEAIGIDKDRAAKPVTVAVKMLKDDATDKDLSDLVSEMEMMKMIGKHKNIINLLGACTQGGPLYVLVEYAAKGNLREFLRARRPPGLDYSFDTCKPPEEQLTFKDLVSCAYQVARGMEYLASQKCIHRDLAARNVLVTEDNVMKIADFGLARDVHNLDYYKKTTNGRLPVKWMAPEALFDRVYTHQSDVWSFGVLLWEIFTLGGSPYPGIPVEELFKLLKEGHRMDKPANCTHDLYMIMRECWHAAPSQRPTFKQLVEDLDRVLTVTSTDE

FGFR1 = FGFR1 (Homo sapiens (Human), UniProt P11362); assay: LC/MS FGFR1 kobs assay (covalent modification); format: biochemical; details: 500 nM FGFR1, 3 μM compound
Procedure: as §1, §2

human wild type FGFR3 = human wild type FGFR3 (Homo sapiens (Human), UniProt P22607); assay: FGFR3 pERK Cell Assay; format: cell-based; details: HEK-293 cells, 1 hour compound, 100 ng/ml human FGF-acidic; maximum concentration 5 μM
Procedure: (§3) HEK-293 cells transfected with dox-inducible human wild type FGFR3 (SEQ ID NO: 5) were plated in a collagen or poly-D-lysine coated 96 well flat bottom plates at 4×10^5 cells/well in complete DMEM medium containing 10% FBS and 1 μg/ml doxycycline and allowed to attach for 24 h at 37° C., 5% CO2. Cells were treated with compound using 1:3 serial dilutions with a maximum final concentration of 5 μM. Compound was incubated on cells for 1 hour at 37° C., 5% CO2. Cells were then stimulated with a final concentration of 100 ng/ml human FGF-acidic (R&D Systems Cat number 232-FA/CF) for 5 minutes at 37° C., 5% CO2. Medium was removed, and cells were lysed with lysis buffer containing phosphatase and protease inhibitors. Phospho ERK1/2 was measured using the Meso Scale Discovery sandwich assay (Meso Scale Discovery cat. no. K151DWD). The assay captures phospho ERK1/2 and detects with a sulfo-tagged total ERK1/2 antibody. The chemiluminescent signal was read on the Sector Imager Plate reader. 100 POC was determined using no test compounds and 0 POC was determined using a control compound. The POC values were fit to a 4-parameter logistic curve as a function of the concentration of the compound, and the IC50 value is the point where the curve crosses 50 POC.

human wild type FGFR1 = human wild type FGFR1 (Homo sapiens (Human), UniProt P11362); assay: FGFR1 pERK Cell Assay; format: cell-based; details: HEK-293 cells, 1 hour compound, 100 ng/ml human FGF-acidic; maximum concentration 5 μM
Procedure: as §3, with “doxycycline(dox)-inducible” for “dox-inducible”, “FGFR1” for “FGFR3”, “1)” for “5)”, “Dulbecco's Modified Eagle Medium (DMEM)” for “DMEM medium”, “compound” for “compounds”

Sequence of FGFR1 (P11362 458-765): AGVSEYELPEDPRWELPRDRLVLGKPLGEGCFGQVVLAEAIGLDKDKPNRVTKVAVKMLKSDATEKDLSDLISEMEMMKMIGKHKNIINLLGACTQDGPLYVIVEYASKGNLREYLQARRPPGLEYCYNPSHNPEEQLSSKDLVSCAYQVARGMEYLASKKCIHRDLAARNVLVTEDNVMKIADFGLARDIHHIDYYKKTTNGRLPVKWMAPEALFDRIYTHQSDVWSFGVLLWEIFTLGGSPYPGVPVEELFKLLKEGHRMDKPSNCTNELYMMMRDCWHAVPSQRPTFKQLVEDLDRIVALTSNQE
Sequence of human wild type FGFR1 (P11362 22-822): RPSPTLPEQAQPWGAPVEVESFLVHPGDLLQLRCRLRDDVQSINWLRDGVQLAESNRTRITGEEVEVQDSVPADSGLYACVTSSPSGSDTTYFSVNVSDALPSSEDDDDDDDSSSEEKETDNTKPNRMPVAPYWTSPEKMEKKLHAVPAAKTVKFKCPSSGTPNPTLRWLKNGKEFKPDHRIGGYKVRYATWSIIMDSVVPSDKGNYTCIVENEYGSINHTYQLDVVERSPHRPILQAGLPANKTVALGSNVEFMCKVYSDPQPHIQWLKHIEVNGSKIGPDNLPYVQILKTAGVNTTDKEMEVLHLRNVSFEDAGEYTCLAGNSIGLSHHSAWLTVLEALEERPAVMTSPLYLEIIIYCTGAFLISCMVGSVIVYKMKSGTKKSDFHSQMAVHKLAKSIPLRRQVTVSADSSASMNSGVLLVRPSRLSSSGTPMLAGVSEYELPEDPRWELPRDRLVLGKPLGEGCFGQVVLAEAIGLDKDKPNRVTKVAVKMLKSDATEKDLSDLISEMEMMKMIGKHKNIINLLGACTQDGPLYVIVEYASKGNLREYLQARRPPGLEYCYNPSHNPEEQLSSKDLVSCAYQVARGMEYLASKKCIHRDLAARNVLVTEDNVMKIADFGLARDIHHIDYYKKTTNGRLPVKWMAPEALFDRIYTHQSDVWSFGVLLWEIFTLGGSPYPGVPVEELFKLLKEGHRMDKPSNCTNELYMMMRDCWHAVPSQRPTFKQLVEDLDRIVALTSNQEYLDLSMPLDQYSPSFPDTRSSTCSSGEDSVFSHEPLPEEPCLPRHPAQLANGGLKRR
Sequence of human wild type FGFR3 (P22607 23-806): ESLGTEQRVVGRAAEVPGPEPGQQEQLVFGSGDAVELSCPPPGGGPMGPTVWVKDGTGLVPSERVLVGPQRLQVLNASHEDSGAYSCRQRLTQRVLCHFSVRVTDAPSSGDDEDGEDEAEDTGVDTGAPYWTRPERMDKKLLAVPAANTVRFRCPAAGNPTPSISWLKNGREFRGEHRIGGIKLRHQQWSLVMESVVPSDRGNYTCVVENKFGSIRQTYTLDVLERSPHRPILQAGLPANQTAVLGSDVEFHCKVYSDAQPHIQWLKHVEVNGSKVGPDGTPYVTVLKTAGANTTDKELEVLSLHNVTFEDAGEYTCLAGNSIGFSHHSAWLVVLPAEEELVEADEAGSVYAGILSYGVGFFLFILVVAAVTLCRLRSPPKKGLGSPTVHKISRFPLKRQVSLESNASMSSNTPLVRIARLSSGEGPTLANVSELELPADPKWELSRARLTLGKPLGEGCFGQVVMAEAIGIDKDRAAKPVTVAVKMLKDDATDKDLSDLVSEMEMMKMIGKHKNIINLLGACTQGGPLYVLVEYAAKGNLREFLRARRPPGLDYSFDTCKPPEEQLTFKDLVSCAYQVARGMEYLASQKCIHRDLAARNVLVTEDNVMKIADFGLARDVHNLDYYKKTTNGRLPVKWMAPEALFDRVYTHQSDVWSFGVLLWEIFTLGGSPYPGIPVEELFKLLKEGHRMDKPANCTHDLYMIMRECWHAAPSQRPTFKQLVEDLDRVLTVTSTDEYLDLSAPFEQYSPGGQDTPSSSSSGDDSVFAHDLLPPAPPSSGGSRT

Row | IC50 (FGFR3 [1]) [nM] | FGFR3 Enz kobs (FGFR3 [2]) [min⁻¹] | FGFR1 Enz kobs (FGFR1) [min⁻¹] | IC50 (human wild type FGFR3) [nM] | IC50 (human wild type FGFR1) [nM] | Compound
1 | 42 | 0.00892 | 0.00141 | 2740 | ≥ 5000 | COc1cc(Nc2ccc3ncc(-c4cnn([C@@H]5CCN(C(=O)C6CN(C(=O)/C=C/CN(C)C)C6)C5)c4)nc3c2)cc(OC)c1 [Example 20, (R,E)-1-(3-(3-(4-(7-((3,5-dimethoxyphenyl)amino)-quinoxalin-2-yl)-1H-pyrazol-1-yl)pyrrolidine-1-carbonyl)azetidin-1-yl)-4-(dimethylamino)but-2-en-1-one]
2 | 16 | 0.09291 | 0.01569 | 14 | 134 | COc1cc(Nc2ccc3ncc(-c4cnn(C5CCN(C(=O)C6(F)CN(C(=O)/C=C/CN(C)C)C6)CC5)c4)nc3c2)cc(OC)c1 [Example 10, (E)-1-(3-(4-(4-(7-((3,5-dimethoxyphenyl)amino)-quinoxalin-2-yl)-1H-pyrazol-1-yl)piperidine-1-carbonyl)-3-fluoro-azetidin-1-yl)-4-(dimethylamino)but-2-en-1-one]
3 | 79 | 0.05725 | 0.00673 | 113 | 898 | COc1cc(Nc2ccc3ncc(-c4cn(C5CCN(C(=O)C6(F)CN(C(=O)/C=C/CN(C)C)C6)CC5)nc4C)nc3c2)cc(OC)c1 [Example 22, (E)-1-(3-(4-(4-(7-((3,5-dimethoxyphenyl)amino)-quinoxalin-2-yl)-3-methyl-1H-pyrazol-1-yl)-piperidine-1-carbonyl)-3-fluoroazetidin-1-yl)-4-(dimethylamino)but-2-en-1-one]
4 | 490 | 0.04226 | 0.00326 | 540 | 1940 | COc1cc(Nc2ccc3ncc(-c4cnc(N5CCN(C(=O)C6(F)CN(C(=O)/C=C/CN(C)C)C6)CC5)cc4C)nc3c2)cc(OC)c1 [Example 14, (E)-1-(3-(4-(5-(7-((3,5-dimethoxyphenyl)amino)-quinoxalin-2-yl)-4-methylpyridin-2-yl)-piperazine-1-carbonyl)-3-fluoroazetidin-1-yl)-4-(dimethylamino)but-2-en-1-one]
5 | 10 | 0.03901 | 0.00632 | 20 | 170 | C=CC(=O)N1CC(F)(C(=O)N2CCC(n3cc(-c4cnc5ccc(Nc6cc(OC)cc(OC)c6)cc5n4)cn3)CC2)C1 [Example 4, 1-(3-(4-(4-(7-((3,5-dimethoxyphenyl)amino)-quinoxalin-2-yl)-1H-pyrazol-1-yl)piperidine-1-carbonyl)-3-fluoro-azetidin-1-yl)prop-2-en-1-one]
6 | 48 | 0.08024 | 0.00842 | 61 | 423 | COc1cc(Nc2ccc3ncc(-c4cnn(C5CCN(C(=O)C6(F)CN(C(=O)/C=C/CN(C)C)C6)CC5)c4C)nc3c2)cc(OC)c1 [Example 17, (E)-1-(3-(4-(4-(7-((3,5-dimethoxyphenyl)amino)-quinoxalin-2-yl)-5-methyl-1H-pyrazol-1-yl)piperi-dine-1-carbonyl)-3-fluoroazetidin-1-yl)-4-(dimethylamino)but-2-en-1-one]
7 | 24 | 0.01322 | 0.00223 | 19 | 225 | C=CC(=O)N1CC(OC)(C(=O)N2CCC(n3cc(-c4cnc5ccc(Nc6cc(OC)cc(OC)c6)cc5n4)cn3)CC2)C1 [Example 24, 1-(3-(4-(4-(7-((3,5-dimethoxyphenyl)amino)-quinoxalin-2-yl)-1H-pyrazol-1-yl)piperidine-1-carbonyl)-3-methoxy-azetidin-1-yl)prop-2-en-1-one]
8 | 161 | 0.04816 | 0.00259 | 228 | ≥ 5000 | COc1cc(Nc2ccc3ncc(-c4ccc(N5CCN(C(=O)C6CN(C(=O)/C=C/CN(C)C)C6)CC5)nc4)nc3c2)cc(OC)c1 [Example 6, (E)-1-(3-(4-(5-(7-((3,5-dimethoxyphenyl)amino)-quinoxalin-2-yl)pyridin-2-yl)piperazine-1-carbonyl)azetidin-1-yl)-4-(dimethylamino)but-2-en-1-one]
